Drawing on patent US20250230165A1, “HETEROCYCLIC COMPOUNDS FOR USE IN THE TREATMENT OF CANCER” (ARTIOS PHARMA LIMITED, priority 2021, published 2025), this text covers Kinact/Kl for 16 compounds.

The experiment concerns the target T1, Human Polθ polymerase domain (aa1820-2590) (Homo sapiens, UniProt O75417).
T1 construct: Human Polθ polymerase domain (aa1820-2590) was expressed in E. coli; made in house; host or cells: E. coli
T1 sequence (O75417 1820-2590): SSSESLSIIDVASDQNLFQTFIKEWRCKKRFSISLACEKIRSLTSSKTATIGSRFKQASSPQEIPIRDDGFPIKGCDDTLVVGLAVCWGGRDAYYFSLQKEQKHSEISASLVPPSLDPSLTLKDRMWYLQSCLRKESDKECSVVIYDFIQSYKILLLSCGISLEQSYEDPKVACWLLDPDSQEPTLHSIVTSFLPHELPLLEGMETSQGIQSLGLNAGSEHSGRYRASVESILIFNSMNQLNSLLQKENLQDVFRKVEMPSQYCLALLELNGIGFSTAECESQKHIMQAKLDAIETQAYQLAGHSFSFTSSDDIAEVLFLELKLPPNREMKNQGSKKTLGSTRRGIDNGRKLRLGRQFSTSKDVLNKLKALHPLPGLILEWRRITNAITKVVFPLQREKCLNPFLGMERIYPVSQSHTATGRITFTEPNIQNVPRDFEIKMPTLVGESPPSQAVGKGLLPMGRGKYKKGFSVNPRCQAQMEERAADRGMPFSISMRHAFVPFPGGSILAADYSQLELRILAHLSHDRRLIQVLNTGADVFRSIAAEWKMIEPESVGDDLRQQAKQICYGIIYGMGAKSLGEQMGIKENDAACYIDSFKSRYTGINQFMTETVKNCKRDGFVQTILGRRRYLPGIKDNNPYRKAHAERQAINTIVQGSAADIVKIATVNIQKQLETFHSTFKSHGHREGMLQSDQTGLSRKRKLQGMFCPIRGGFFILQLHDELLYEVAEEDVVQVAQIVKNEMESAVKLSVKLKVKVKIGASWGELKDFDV
As to the kind of experiment: Polθ Polymerase Domain Kinact/KI Assay (PicoGreen). The class given is biochemical. The settings on record: 0.8 nM Polθ, 100 nM DNA substrate, kobs vs [I] fit for 2-step covalent inhibitor. Put shortly: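 PicoGreen fluorescence read-out of primer extension; progress curves per inhibitor concentration fitted for kobs, then kobs vs [I] fitted to a two-step covalent model to give Kinact and KI. Conditions: 0.8 nM enzyme, 100 nM DNA substrate, […].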

`C=C(CN(C)C)C(=O)NCCCCCN1C[C@H]2CC(=O)N(c3cc(C(F)(F)F)cc(C)n3)[C@@H]2C(=O)N(C)c2cccc(C)c21` [Example 84, N-(5-((3aR,11aS)-6,10-dimethyl-1-(6-methyl-4-(trifluoromethyl)pyridin-2-yl)-2,11-dioxo-1,2,3,3a,4,10,11,11a-octahydro-5H-benzo[b]pyrrolo[2,3-f][1,4]diazocin-5-yl)pentyl)-2-((dimethylamino)methyl)acrylamide]: the Kinact/Kl stood at 3.61e+06 M⁻¹ s⁻¹.

The compound `C=CC(=O)N1Cc2ncc(CN3C[C@H]4CC(=O)N(c5cc(C(F)(F)F)cc(C)n5)[C@@H]4C(=O)N(C)c4cccc(C)c43)cc2[C@@H]1CC#N` (racemic) [Example 320b, 2-((S/R)-6-acryloyl-3-(((3aR,11aS)-6,10-dimethyl-1-(6-meth-yl-4-(trifluorometh-yl)pyridin-2-yl)-2,11-dioxo-1,2,3,3a, 4, 10,11,11a-octa-hydro-5H-benzo[b]pyrrolo[2,3-f][1,4]diazocin-5-yl)meth-yl)-6,7-dihydro-5H-pyrrolo[3,4-b]pyr-idin-5-yl)acetonitrile] registered a Kinact/Kl of 2.48e+06 M⁻¹ s⁻¹.

In the case of `C=C(CN(C)C)C(=O)N1CC(CCCN2C[C@H]3CC(=O)N(c4cc(C(F)(F)F)cc(C)n4)[C@@H]3C(=O)N(C)c3cccc(Cl)c32)C1` [Example 299, (3aR,11aS)-6-chloro-5-(3-(1-(2-((dimethylamino)methyl)acryloyl)azetidin-3-yl)propyl)-10-methyl-1-(6-methyl-4-(trifluoromethyl)pyridin-2-yl)-1,3a,4,5,10,11a-hexahydro-2H-benzo[b]pyrrolo[2,3-f][1,4]diazocine-2,11(3H)-dione], the Kinact/Kl stood at 1.99e+06 M⁻¹ s⁻¹.

`C=CC(=O)N1CC2(CN(CCN3C[C@H]4CC(=O)N(c5cc(C(F)(F)F)cc(C)n5)[C@@H]4C(=O)N(C)c4cccc(F)c43)C[C@@H](COC)N2)C1` [Example 6, (3aR,11aS)-5-(2-((S)-2-acryloyl-6-(methoxymethyl)-2,5,8-triazaspiro[3.5]nonan-8-yl)ethyl)-6-fluoro-10-methyl-1-(6-methyl-4-(trifluoromethyl)pyridin-2-yl)-1,3a,4,5,10,11a-hexahydro-2H-benzo[b]pyrrolo[2,3-f][1,4]diazocine-2,11(3H)-dione] returned a Kinact/Kl of 540000 M⁻¹ s⁻¹.

`C=CC(=O)N1CC(N2CC[C@@H](CN3C[C@H]4CC(=O)N(c5cc(C(F)(F)F)cc(C)n5)[C@@H]4C(=O)N(C)c4cccc(C)c43)C2)C1` [Example 224, (3aR,11aS)-5-(((R)-1-(1-acryloylazetidin-3-yl)pyrrolidin-3-yl)methyl)-6,10-dimethyl-1-(6-methyl-4-(trifluoromethyl)pyridin-2-yl)-1,3a,4,5,10,11a-hexahydro-2H-benzo[b]pyrrolo [2,3-f][1,4] diazocine-2,11(3H)-dione]: the Kinact/Kl was 4.21e+06 M⁻¹ s⁻¹.

`C=CC(=O)N1Cc2nc(CN3C[C@H]4CC(=O)N(c5cc(C(F)(F)F)cc(C)n5)[C@@H]4C(=O)N(C)c4cccc(C)c43)cn2C[C@H]1C(F)(F)F` (racemic) [Example 322a, (3aR,11aS)-5-(((S/R)-7-acryloyl-6-(trifluoromethyl)-5,6,7,8-tetrahydro-imidazo[1,2-a]pyr-azin-2-yl)methyl)-6,10-dimethyl-1-(6-methyl-4-(trifluoro-methyl)pyridin-2-yl)-1,3a,4,5,10,11a-hexahydro-2H-benzo[b]pyrrolo [2,3-f][1,4]diazo-cine-2,11(3H)-dione] displayed a Kinact/Kl of 1.56e+06 M⁻¹ s⁻¹.

`C=C(CN(C)C)C(=O)N1CC(c2ccc(CN3C[C@H]4CC(=O)N(c5cc(C(F)(F)F)cc(C)n5)[C@@H]4C(=O)N(C)c4cccc(F)c43)cc2)C1` [Example 151, (3aR, 11aS)-5-(4-(1-(2-((dimethylamino)methyl)acryloyl)azetidin-3-yl)benzyl)-6-fluoro-10-methyl-1-(6-methyl-4-(trifluoromethyl)pyridin-2-yl)-1,3a,4,5,10,11a-hexahydro-2H-benzo[b]pyrrolo[2,3-f][1,4]diazocine-2,11(3H)-dione] showed a Kinact/Kl of 2.04e+06 M⁻¹ s⁻¹.

Regarding `C=CC(=O)N1CCOc2cc(CN3C[C@H]4CC(=O)N(c5cc(C(F)(F)F)cc(C)n5)[C@@H]4C(=O)N(C)c4cccc(Cl)c43)ccc21` [Example 281, (3aR,11aS)-5-((4-acryloyl-3,4-dihydro-2H-benzo[b][1,4]oxazin-7-yl)methyl)-6-chloro-10-methyl-1-(6-methyl-4-(trifluoromethyl)pyridin-2-yl)-1,3a,4,5,10,11a-hexahydro-2H-benzo[b]pyrrolo[2,3-f][1,4]diazocine-2,11(3H)-dione], the Kinact/Kl came to 1.05e+06 M⁻¹ s⁻¹.

On to `C=CC(=O)N1CCN2CCN(CCN3C[C@H]4CC(=O)N(c5cc(C(F)(F)F)cc(C)n5)[C@@H]4C(=O)N(C)c4cccc(F)c43)C[C@H]2C1` (racemic) [Example 23a, (3aR,11aS)-5-(2-((S/R)-8-acryloyloctahydro-2H-pyrazino[1,2-a]pyrazin-2-yl)ethyl)-6-fluoro-10-methyl-1-(6-methyl-4-(trifluoromethyl)pyridin-2-yl)-1,3a,4,5,10,11a-hexahydro-2H-benzo[b]pyrrolo[2,3-f][1,4]diazocine-2, 11(3H)-dione], for which the Kinact/Kl came to 140000 M⁻¹ s⁻¹.

With `Cc1cc(C(F)(F)F)cc(N2C(=O)C[C@@H]3CN(CCCOC4CN(C(=O)/C=C/CN(C)C)C4)c4c(C)cccc4N(C)C(=O)[C@H]32)n1` [Example 169, (3aR,11aS)-5-(3-((1-((E)-4-(dimethylamino)but-2-enoyl)azetidin-3-yl)oxy)propyl)-6,10-dimethyl-1-(6-methyl-4-(trifluoromethyl)pyridin-2-yl)-1,3a,4,5,10,11a-hexahydro-2H-benzo[b]pyrrolo[2,3-f][1,4]diazocine-2,11(3H)-dione], the Kinact/Kl was 2.69e+06 M⁻¹ s⁻¹.

`C=CC(=O)N1CC(N2CCO[C@@H]3CN(CCN4C[C@H]5CC(=O)N(c6cc(C(F)(F)F)cc(C)n6)[C@@H]5C(=O)N(C)c5cccc(F)c54)C[C@H]32)C1` (single isomer, unassigned) [Example 22b] came in with a Kinact/Kl of 460000 M⁻¹ s⁻¹.

Turning to `C=CC(=O)N1Cc2ccc(CN3C[C@H]4CC(=O)N(c5cc(C(F)(F)F)cc(C)n5)[C@@H]4C(=O)N(C)c4cccc(Cl)c43)nc2C1CC#N` (single isomer, unassigned) [Example 289a], the Kinact/Kl is 1.26e+06 M⁻¹ s⁻¹.

`C=CC(=O)N1CC(N2CCC(F)(CN3C[C@H]4CC(=O)N(c5cc(C(F)(F)F)cc(C)n5)[C@@H]4C(=O)N(C)c4cccc(C)c43)CC2)C1` [Example 94, (3aR,11aS)-5-((1-(1-acryloylazetidin-3-yl)-4-fluoropiperidin-4-yl)methyl)-6,10-dimethyl-1-(6-methyl-4-(trifluoromethyl)pyridin-2-yl)-1,3a,4,5,10,11a-hexahydro-2H-benzo[b]pyrrolo[2,3-f][1,4]diazocine-2,11(3H)-dione] gave a Kinact/Kl of 1.54e+06 M⁻¹ s⁻¹.

Compound `C=CC(=O)N1CC(N2CCC(CN3C[C@H]4CC(=O)N(c5cc(C(F)(F)F)cc(C)n5)[C@@H]4C(=O)N(C)c4cccc(C)c43)CC2)C1` [Example 93, (3aR,11aS)-5-((1-(1-acryloylazetidin-3-yl)piperidin-4-yl)methyl)-6,10-dimethyl-1-(6-methyl-4-(trifluoromethyl)pyridin-2-yl)-1,3a,4,5,10,11a-hexahydro-2H-benzo[b]pyrrolo[2,3-f][1,4]diazocine-2,11(3H)-dione] displayed a Kinact/Kl of 2.73e+06 M⁻¹ s⁻¹.

The compound `C=CC(=O)N1CC(=O)N2CCN(CCN3C[C@H]4CC(=O)N(c5cc(C(F)(F)F)cc(C)n5)[C@@H]4C(=O)N(C)c4cccc(F)c43)CC2C1` (mixture of isomers) [Example 62b, (3aR,11aS)-5-(2-((S/R)-8-acryloyl-6-oxooctahydro-2H-pyrazino[1,2-a]pyrazin-2-yl)ethyl)-6-fluoro-10-methyl-1-(6-methyl-4-(trifluoromethyl)pyridin-2-yl)-1,3a,4,5,10,11a-hexahydro-2H-benzo[b]pyrrolo[2,3-f][1,4]diazocine-2,11(3H)-dione] yielded a Kinact/Kl of 1.26e+06 M⁻¹ s⁻¹.

The compound `C=CC(=O)N1Cc2cnc(CN3C[C@H]4CC(=O)N(c5cc(C(F)(F)F)cc(C)n5)[C@@H]4C(=O)N(C)c4cccc(Cl)c43)nc2C1` [Example 278, (3aR,11aS)-5-((6-acryloyl-6,7-dihydro-5H-pyrrolo[3,4-d]pyrimidin-2-yl)methyl)-6-chloro-10-methyl-1-(6-methyl-4-(trifluoromethyl)pyridin-2-yl)-1,3a,4,5,10,11a-hexahydro-2H-benzo[b]pyrrolo[2,3-f][1,4]diazocine-2,11(3H)-dione] registered a Kinact/Kl of 770000 M⁻¹ s⁻¹.
